Measured values taken from US20170112108A1, “GENETICALLY MODIFIED NON-HUMAN MAMMALS HAVING MODIFIED LIVER CELLS AND/OR TISSUE AND METHODS OF MAKING SAME” (priority 2015, published 2017).
Like-named read-outs stand apart in the source and are kept apart here.

Key:
[1] = test system: human liver; conditions: in vivo, cited from earlier work
[2] = test system: rats; conditions: bosentan-treated rats; cited from earlier work
[3] = test system: clinical trial participants; conditions: of 15 clinical trial participants; cited from earlier work
[4] = test system: mice, rats, dogs and primates; conditions: cited from earlier work
[5] = test system: rat liver; assay: Serum ALT after GCV in neonatal rats given rAAV-PB-HSVtk and rAAV-PBo; format: in vivo; conditions: 50 mg/kg GCV, 2 injections 2 days apart, 2 weeks after rAAV-PB-HSVtk and rAAV-PBo (5e10 vector genomes each); serum one week later
Description: 20% targeted delivery is insufficient to induce desirable liver damage with ganciclovir (GCV). Three day old neonatal rats were injected with 5e10 vector genomes each of rAAV-PB-HSVtk and rAAV-PBo per animal. Due to the stable integration and expression of suicide gene HSVtk mediated by piggyBac transposon multiple injections of ganciclovir (GCV) can be administered over a prolonged period of time. 2 weeks later, each animal was injected with 50 mg/kg GCV (2 injections, 2 days apart). One week later blood serum was collected and analyzed for elevated ALT levels, which is indicative of liver damage. […] ALT levels in the 200-300 range in desirable prior to transplantation of human hepatocytes.

| Compound | human-specific hepatotoxicity [1] | human-specific hepatotoxicity ([1]; listed as Bosetan) | hepatotoxicity in rats [2] | participants who developed acute liver failure [3] | participants who died [3] | participants who required a liver transplant [3] | outcome of preclinical toxicology studies [4] | serum ALT levels (liver damage) [5] |
| --- | --- | --- | --- | --- | --- | --- | --- | --- |
| COc1ccccc1Oc1c(NS(=O)(=O)c2ccc(C(C)(C)C)cc2)nc(-c2ncccn2)nc1OCCO [Bosentan] | causes hepatotoxicity in a human-specific manner | known to cause human-specific hepatotoxicity | do not develop hepatotoxicity |  |  |  |  |  |
| O=c1[nH]c(=O)n([C@@H]2O[C@H](CO)[C@@H](O)[C@@H]2F)cc1I [FIAU] | known to cause human-specific hepatotoxicity |  |  | seven | five | two | cleared all preclinical toxicology studies |  |
| Nc1nc(O)c2ncn(COC(CO)CO)c2n1 [GCV, ganciclovir] |  |  |  |  |  |  |  | normal ALT levels |
